From patent US6544541B1, “Devices and compounds for treating arterial restenosis” (Cardiovascular Solutions, Inc., priority 1999, dated 2003)

Legend:
[1] = system: porcine coronary artery smooth muscle cells
[2] = system: H4IIE hepatoma cells; assay: DNA synthesis (3H-thymidine incorporation) in H4IIE cells; format: cell-based; details: H4IIE cells
Protocol: Incorporation of uridine or thymidine was used to define the change in rate of […] synthesis, respectively, in response to a mitogen such as insulin. Specifically, quiescent H4IIE cells were prepared by placing the cultures (in 24-well dishes) into serum-free a-minimal essential medium for 3 days. It is of note that the normal growth media for H4IIE cells is α-MEM containing 10% fetal bovine serum (FBS). After reaching quiescence, the cells were stimulated with 1 μM insulin and incubated for either 6 hours or 24 hours in the presence of 1 μCi/ml ^3H-uridine or ^3H-thymidine, respectively. Cells were subsequently lysed with detergent and the nucleic acids precipitated with 5% trichloroacetic acid. The precipitated material was collected on glass fibre filters and the radioactive content measured by scintillation counting. […] Furthermore, while complete inhibition of DNA synthesis by MIBG is obtained at approximately 20 μM, higher concentrations decrease basal DNA synthesis below control levels.

[3] = system: H4IIE hepatoma cells; assay: flow cytometry, bromodeoxyuridine incorporation in proliferating cells; format: cell-based; details: 25 μM MIBG, 48 hours; FIG. 4
Protocol: Additional verification that MIBG blocked cell proliferation was obtained using flow cytometry analysis. Proliferating H4IIE cells (<40% confluent) were incubated for 48 hours in the presence or absence (untreated control or containing MIBA) of 25 μM MIBG. The cells were pulse labeled with bromodeoxyuridine (BrdU) 2 hours before harvest to label replicating DNA. Cells were released by trypsinization, collected by centrifugation and permeabilized with Triton X-100 (1%). Replicated DNA was labeled with an anti-BrdU antibody conjugated to FITC (fluorescein isothiocyanate), while total DNA was labeled with propidium iodide. The FITC and propidium iodide labels were detected at 514 nm and 600 nm, respectively, with a Coulter flow cytometer™ (excitation wavelength 488 nm), and number of cells containing these fluors were quantified. The data were plotted as cells with propidium iodide versus cells with BrdU. […] To summarize, the results described above indicate that MIBG is a potent inhibitor of cell proliferation. Furthermore, the cellular process affected by MIBG is active throughout the cell cycle. This conclusion is based on the fact that there is no accumulation of cells at a specific phase of the cell cycle. In addition, it is of note that there is no apparent decrease in cell number or an increase in smaller cells, both characteristics of cell death.

[4] = system: H4IIE cells; assay: lactate dehydrogenase (LDH) release toxicity assay; format: cell-based; details: 96 hours; FIG. 5
Protocol: To address the issue of MIBG toxicity, lactate dehydrogenase (LDH) release was measured after incubation with MIBG or MIBA. Quiescent H4IIE cells were prepared in 96-well dishes and treated with various concentrations of either MIBG or MIBA for 96 hours. To quantify the release of LDH from the cells, which only occurs if the cells are damaged or killed by the treatment, 100 μl of culture medium was transferred to a fresh dish. To this was added 100 μl of dye/catalyst mixture (Boehringer Mannheim cytotoxicity detection kitTM), and the samples were subsequently incubated for 30 minutes at 37° C. Absorbance of the solution was monitored at 490 nm. The colour intensity indicates the relative LDH content in the test samples. […] As a consequence, it is speculated that changes in LDH release may be coupled to non-toxic and reversible alterations in mitochondrial metabolism or membrane integrity as a result of MIBG treatment.

[5] = system: cell growth; details: cited from earlier work
[6] = system: Friend erythroleukemia cells; assay: Friend cell differentiation; format: cell-based
Source text: It is of note however that MIBG acts at a point in the differentiation pathway that is distinct from 3-aminobenzamide.

[7] = human studies; cited from earlier work
[8] = system: porcine femoral artery; assay: balloon angioplasty of the porcine femoral artery in vivo; parameters: species or system pigs; details: in vivo femoral angioplasty, relative to MIBG; FIG. 25
Source text: To test the effectiveness of MIBG under in vivo conditions, this compound was applied to the femoral artery after balloon angioplasty. This model provided a means of testing both MIBG and the method of application. Specifically, male castrated farm pigs (25-30 kg) were anaesthetized and maintained on isoflurane throughout the procedure. With the pig in a supine position, the left femoral artery was exposed from the bifurcation of the femoral and superficial femoral arteries to the point of insertion of the femoral artery into the groin. A mixture of nitroglycerin and papaverine was applied to the vessel and the area was covered with a saline-soaked sponge to keep the tissues moist. The right femoral artery was also exposed, treated and covered with a sponge. The left femoral was then clamped at both groin insertion (proximal) and bifurcation (distal) points, and an arteriotomy made at the bifurcation. The balloon (6.0×20 mm) was inserted through the arteriotomy in a retrograde manner (i.e. toward the groin) to a position 20 mm from the arteriotomy and the proximal clamp removed. The balloon was inflated for 1 minute, deflated and carefully removed, and the arteriotomy was closed with 6.0 ProleneTM suture. MIBG in combination with a biocompatible glue, in this example, Tisseel®, was applied to the surface of the vessel extending from the arteriotomy to the proximal region past the site of balloon inflation. The fibrin glue ensured that MIBG slowly diffused into the vessel. Furthermore, the fibrin glue helps to retain MIBG at the site for several days. The right femoral was handled as described above. […] The extent of restenosis was subsequently monitored by morphometry. […] Digital images were captured with a DAGE-MTI CCD camera and analyzed with SigmaScan Software. The neointimal and medial areas are quantified and used to calculate the neointimal index: neointimal area/medial area. […] Even though the vehicle cannot be detected after 14 days, we conclude that it remains for the minimum period necessary.

[9] = system: porcine coronary arteries; assay: coronary artery organ culture after balloon angioplasty (neointimal index); details: organ culture, relative to MIBG; FIG. 24
Source text: Although smooth muscle cell cultures can be used to determine the ability of a compound to inhibit proliferation, these cells are not good indicators of a compound's ability to prevent restenosis. This statement stems from the fact that several processes, including cell migration, proliferation and synthesis of ECM degrading enzymes, must be coordinately activated in order for restenosis to occur. A novel organ culture system has therefore been developed in order to test the effectiveness of MIBG and other compounds at preventing restenosis (Wilson et al, 1999, Cardiac Res 42: 761-772). In brief, hearts are transported from the abattoir to the laboratory on ice. The left descending coronary artery is exposed and a balloon catheter is inserted past the first bifurcation. The balloon is inflated, and after 1 minute is deflated and withdrawn. The damaged region (approximately 20 mm in length) is excised, cut into 4 pieces of 5 mm and each piece is placed into an individual well of a culture dish. These segments can be maintained in media containing 20% serum for up to 21 days. Upon harvest of the tissue, typically after 14 days, the vessel segments are placed into resin for histological analysis. Sections are prepared from vessel segments after removal of the first 1.5 mm. […] This file is imported into SigmaScan™, and staining in the areas of the intimal and medial layers quantified. […]

[10] = system: smooth muscle cells; assay: Boyden chamber smooth muscle cell migration in response to Angiotensin II; format: cell-based; details: 20 μM; 10 μM Angiotensin II in lower compartment; FIG. 17
Protocol: Specifically, smooth muscle cells were seeded into the upper chamber of a Boyden chamber, which consists of two compartments that are separated by a permeable membrane. […] Specifically, migration to the lower compartment was determined by counting cells on the underside of the membrane. Data are presented as means ± standard error for six independent determinations.

[11] = system: smooth muscle cells derived from human arterial conduits; assay: DNA synthesis and cytotoxicity in human smooth muscle cells; details: human cells; FIG. 26B

N=C(N)NCCCCN [agmatine]
inhibition of DNA synthesis in response to serum treatment [1]: does not inhibit DNA synthesis

NCc1cccc(I)c1 [MIBA, meta-iodobenzylamine]
inhibition of DNA synthesis (thymidine incorporation) [2]: does not inhibit DNA synthesis
bromodeoxyuridine incorporation (DNA synthesis) [3]: identical to those observed in the control cells
concentration at which increased LDH release is detectable [4]: ≥ 200 µM

benzylguanidine [BG]
inhibition of thymidine incorporation [1]: did not inhibit thymidine incorporation
inhibition of DNA synthesis (thymidine incorporation) [2]: did not inhibit thymidine incorporation

NC(=O)c1cccc(N)c1 [3-aminobenzamide]
concentrations at which cell growth is inhibited [5]: ≥ 1 mM
effect on Friend cell differentiation [6]: inhibits the commitment phase

CC(C=NNC(=N)N)=NNC(=N)N [methylGAG, methylglyoxal bis-(guanylhydrazone)]
threshold of tolerance relative to MIBG [7]: higher threshold of tolerance
inhibition of thymidine incorporation, potency relative to MIBG [1]: slightly more potent inhibitor than MIBG
toxicity relative to MIBG [1]: less toxicity
effectiveness in preventing cell growth ([1]; smooth muscle cells, relative to MIBG): as effective as MIBG
effectiveness in preventing neointimal formation [8]: as effective as MIBG
effectiveness in preventing cell growth ([2]; relative to MIBG): as effective as MIBG
effectiveness in preventing neointimal formation [9]: as effective as MIBG
smooth muscle cell migration [10]: inhibited smooth muscle cell migration
toxicity relative to MIBG [11]: less toxicity
